According to the NIST ThermoML archive (doi:10.1021/acs.jced.7b00335):

Assay: xn = mol fraction of the nth substance listed
Details: 100 kPa, Liquid; for viscosity: Concentric cylinders viscometry; for mass density: Vibrating tube method

O=Cc1ccccc1 [benzaldehyde] + CC(C)O
Details	mass density [kg/m3]	viscosity [mPa·s]
293.15 K, x1 = 0.0809	809.6	2.11
293.15 K, x1 = 0.1596	830.7	1.86
293.15 K, x1 = 0.24	852.5	1.675
293.15 K, x1 = 0.3492	882.3	1.499
293.15 K, x1 = 0.4399	906.4	1.42
293.15 K, x1 = 0.5693	940.8	1.402
293.15 K, x1 = 0.6495	962.2	1.414
293.15 K, x1 = 0.7399	986.2	1.434
293.15 K, x1 = 0.8498	1012.8	1.47
293.15 K, x1 = 0.9399	1033.3	1.502
293.15 K, x1 = 1	1046.3	1.52
298.15 K, x1 = 0.0809	804.3	1.82
298.15 K, x1 = 0.1596	826.4	1.63
298.15 K, x1 = 0.24	848.2	1.47
298.15 K, x1 = 0.3492	877.9	1.342
298.15 K, x1 = 0.4399	901.9	1.296
298.15 K, x1 = 0.5693	936.2	1.284
298.15 K, x1 = 0.6495	957.6	1.298
298.15 K, x1 = 0.7399	981.7	1.318
298.15 K, x1 = 0.8498	1008	1.354
298.15 K, x1 = 0.9399	1029	1.385
298.15 K, x1 = 1	1041.7	1.41
303.15 K, x1 = 0.0809	799.9	1.59
303.15 K, x1 = 0.1596	821.8	1.43
303.15 K, x1 = 0.24	843.7	1.33
303.15 K, x1 = 0.3492	873.4	1.233
303.15 K, x1 = 0.4399	897.4	1.197
303.15 K, x1 = 0.5693	931.7	1.187
303.15 K, x1 = 0.6495	953.1	1.196
303.15 K, x1 = 0.7399	976.7	1.216
303.15 K, x1 = 0.8498	1004.1	1.252
303.15 K, x1 = 0.9399	1024.1	1.286
303.15 K, x1 = 1	1037.1	1.31
308.15 K, x1 = 0.0809	795.6	1.41
308.15 K, x1 = 0.1596	817.6	1.29
308.15 K, x1 = 0.24	839.2	1.2
308.15 K, x1 = 0.3492	868.8	1.126
308.15 K, x1 = 0.4399	892.9	1.1
308.15 K, x1 = 0.5693	927.2	1.098
308.15 K, x1 = 0.6495	948.6	1.109
308.15 K, x1 = 0.7399	972.6	1.131
308.15 K, x1 = 0.8498	999.3	1.163
308.15 K, x1 = 0.9399	1019.7	1.197
308.15 K, x1 = 1	1032.4	1.22
313.15 K, x1 = 0.0809	791	1.23
313.15 K, x1 = 0.1596	813	1.14
313.15 K, x1 = 0.24	834.8	1.08
313.15 K, x1 = 0.3492	864.4	1.03
313.15 K, x1 = 0.4399	888.3	1.011
313.15 K, x1 = 0.5693	922.6	1.018
313.15 K, x1 = 0.6495	944	1.032
313.15 K, x1 = 0.7399	967	1.051
313.15 K, x1 = 0.8498	994.1	1.093
313.15 K, x1 = 0.9399	1014.6	1.124
313.15 K, x1 = 1	1027.9	1.15
318.15 K, x1 = 0.0809	786.7	1.08
318.15 K, x1 = 0.1596	808.6	1
318.15 K, x1 = 0.24	830.3	0.95
318.15 K, x1 = 0.3492	859.8	0.918
318.15 K, x1 = 0.4399	883.7	0.909
318.15 K, x1 = 0.5693	918	0.916
318.15 K, x1 = 0.6495	939.4	0.933
318.15 K, x1 = 0.7399	963.2	0.967
318.15 K, x1 = 0.8498	989.7	1.015
318.15 K, x1 = 0.9399	1010.8	1.058
318.15 K, x1 = 1	1023.4	1.09
323.15 K, x1 = 0.0809	782	0.97
323.15 K, x1 = 0.1596	803.7	0.913
323.15 K, x1 = 0.24	825.6	0.873
323.15 K, x1 = 0.3492	855.1	0.848
323.15 K, x1 = 0.4399	879.1	0.84
323.15 K, x1 = 0.5693	913.4	0.844
323.15 K, x1 = 0.6495	934.9	0.863
323.15 K, x1 = 0.7399	958.9	0.892
323.15 K, x1 = 0.8498	985	0.943
323.15 K, x1 = 0.9399	1006	0.991
323.15 K, x1 = 1	1019.1	1.03

O=Cc1ccccc1 [benzaldehyde] + CCCC(C)O
Details	mass density [kg/m3]	viscosity [mPa·s]
293.15 K, x1 = 0.0809	825.2	3.3
293.15 K, x1 = 0.1662	841.4	2.75
293.15 K, x1 = 0.2441	858.3	2.36
293.15 K, x1 = 0.3552	882.5	1.95
293.15 K, x1 = 0.4418	903	1.757
293.15 K, x1 = 0.5664	933.2	1.62
293.15 K, x1 = 0.6565	956.4	1.568
293.15 K, x1 = 0.7447	980	1.537
293.15 K, x1 = 0.8528	1008.5	1.516
293.15 K, x1 = 0.9419	1031.8	1.51
293.15 K, x1 = 1	1046.3	1.52
298.15 K, x1 = 0.0809	821.1	2.775
298.15 K, x1 = 0.1662	837.2	2.35
298.15 K, x1 = 0.2441	854	2.05
298.15 K, x1 = 0.3552	878.2	1.731
298.15 K, x1 = 0.4418	898	1.584
298.15 K, x1 = 0.5664	928.2	1.458
298.15 K, x1 = 0.6565	951.2	1.416
298.15 K, x1 = 0.7447	975.4	1.395
298.15 K, x1 = 0.8528	1004.1	1.39
298.15 K, x1 = 0.9419	1027.4	1.395
298.15 K, x1 = 1	1041.7	1.41
303.15 K, x1 = 0.0809	817	2.4
303.15 K, x1 = 0.1662	833	2.06
303.15 K, x1 = 0.2441	849.7	1.809
303.15 K, x1 = 0.3552	873.9	1.55
303.15 K, x1 = 0.4418	894.4	1.411
303.15 K, x1 = 0.5664	923.8	1.301
303.15 K, x1 = 0.6565	946.9	1.259
303.15 K, x1 = 0.7447	971	1.25
303.15 K, x1 = 0.8528	1000	1.259
303.15 K, x1 = 0.9419	1023.1	1.28
303.15 K, x1 = 1	1037.1	1.31
308.15 K, x1 = 0.0809	812.9	2.035
308.15 K, x1 = 0.1662	828.8	1.78
308.15 K, x1 = 0.2441	845.5	1.584
308.15 K, x1 = 0.3552	869.6	1.369
308.15 K, x1 = 0.4418	890.3	1.25
308.15 K, x1 = 0.5664	919.3	1.159
308.15 K, x1 = 0.6565	942.3	1.128
308.15 K, x1 = 0.7447	966.5	1.117
308.15 K, x1 = 0.8528	995.5	1.138
308.15 K, x1 = 0.9419	1018	1.175
308.15 K, x1 = 1	1032.4	1.22
313.15 K, x1 = 0.0809	808.6	1.746
313.15 K, x1 = 0.1662	824.4	1.537
313.15 K, x1 = 0.2441	841.1	1.37
313.15 K, x1 = 0.3552	865.2	1.185
313.15 K, x1 = 0.4418	885.2	1.088
313.15 K, x1 = 0.5664	914.8	1.021
313.15 K, x1 = 0.6565	937.8	0.999
313.15 K, x1 = 0.7447	962	0.999
313.15 K, x1 = 0.8528	991.1	1.035
313.15 K, x1 = 0.9419	1013.9	1.088
313.15 K, x1 = 1	1027.9	1.15
318.15 K, x1 = 0.0809	804.2	1.46
318.15 K, x1 = 0.1662	820	1.291
318.15 K, x1 = 0.2441	836.7	1.167
318.15 K, x1 = 0.3552	860.8	1.032
318.15 K, x1 = 0.4418	881.4	0.963
318.15 K, x1 = 0.5664	910.4	0.9
318.15 K, x1 = 0.6565	933.4	0.881
318.15 K, x1 = 0.7447	957.4	0.884
318.15 K, x1 = 0.8528	986.6	0.932
318.15 K, x1 = 0.9419	1009.1	1.011
318.15 K, x1 = 1	1023.4	1.09
323.15 K, x1 = 0.0809	799.7	1.206
323.15 K, x1 = 0.1662	815.6	1.068
323.15 K, x1 = 0.2441	832.2	0.984
323.15 K, x1 = 0.3552	856.3	0.887
323.15 K, x1 = 0.4418	876.9	0.831
323.15 K, x1 = 0.5664	906.7	0.789
323.15 K, x1 = 0.6565	928.9	0.782
323.15 K, x1 = 0.7447	952.9	0.799
323.15 K, x1 = 0.8528	981.6	0.85
323.15 K, x1 = 0.9419	1004.5	0.941
323.15 K, x1 = 1	1019.1	1.03
